This passage reports IC50 results from patent publication EP4227307A1 (Genzyme Corporation, priority 2022, dated 2023).

The target of this test is T1, human recombinant 6His-Nterm SHP2 full-length (Thr2-Arg593) (Homo sapiens, UniProt Q06124).
T1 construct: 6His-Nterm SHP2 full-length (Thr2-Arg593, R&D system); 6His (N); purchased R&D system
T1 sequence (Q06124 2-593): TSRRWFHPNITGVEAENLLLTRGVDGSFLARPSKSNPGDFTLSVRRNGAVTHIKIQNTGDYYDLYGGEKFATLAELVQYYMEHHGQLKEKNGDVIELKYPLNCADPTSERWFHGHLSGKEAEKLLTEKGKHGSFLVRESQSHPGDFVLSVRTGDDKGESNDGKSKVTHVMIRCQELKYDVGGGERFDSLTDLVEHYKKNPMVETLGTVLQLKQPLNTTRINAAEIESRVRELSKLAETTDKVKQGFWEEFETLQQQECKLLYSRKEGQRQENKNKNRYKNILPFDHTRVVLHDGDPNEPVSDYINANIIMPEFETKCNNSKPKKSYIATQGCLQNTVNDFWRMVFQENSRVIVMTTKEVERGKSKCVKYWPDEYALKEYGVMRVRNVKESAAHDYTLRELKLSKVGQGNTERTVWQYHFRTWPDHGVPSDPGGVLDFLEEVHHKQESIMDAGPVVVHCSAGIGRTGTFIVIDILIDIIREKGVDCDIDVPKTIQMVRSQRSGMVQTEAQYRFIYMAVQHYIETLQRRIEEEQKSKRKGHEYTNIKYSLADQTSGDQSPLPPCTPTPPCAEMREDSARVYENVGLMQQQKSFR
In words: SHP2 Phosphatase Assay (DiFMUP fluorescence). The following applies: SHP2 0.2 nM pre-incubated with 100 nM bi-phosphorylated activating peptide; compound 1000-0.05 nM, 30 min pre-incubation; DiFMUP 20 µM, 45 min, room temperature; 10-concentration dose-response. In kind it is biochemical. The procedure: Inhibition of SHP2 phosphatase activity was evaluated using human recombinant 6His-Nterm SHP2 full-length (Thr2-Arg593, R&D system), NsCs bi-phosphorylated activating peptide (NH2-LN(pY)AQLWHA(PEG8)LTI(pY)ATIRRF-Amide.acetate, Thermofischer Scientific) and DiFMUP as surrogate phosphatase substrate (Molecular Probes). All reactions were performed at room temperature in 384-well black polystyrene non-binding plate (Corning) with the assay buffer (50 mM HEPES-NaOH pH 7.2, 100 mM NaCl, 0.5 mM EDTA, 0.001% Brij35 including 0.02% BSA and 1 mM DTT added extemporaneously). SHP2 was pre-incubated at least 10 min with the activating peptide (0.2 nM and 100 nM, respectively). 10 µL of this mixture was added to the assay plate, that already contained 15 nL of the compound (1000-0.05 nM). After 30 min pre-incubation, the enzymatic reaction was initiated by the addition of 5 µL DiFMUP in assay buffer without BSA (20 µM). The reaction was stopped by the addition of 15 µL sodium pervanadate solution (100 µM) after 45 min incubation. The fluorescence signal was measured at excitation and emission wavelengths of 350 nm and 450 nm, respectively, using a Pherastar instrument (BMG-LabTech). Percentage of inhibition […] were calculated from the fluorescence signal at 450 nm of the positive and negative control using the following formula: I% = ((signal Max−signal Sample)/(signal Max−signal Min control)) × 100 [formula]
Positive control (Max): corresponds to the maximum fluorescence signal obtained in the presence of 15 nL DMSO replacing the inhibitor in the pre-incubation step.
Negative control (Min): corresponds to the minimum signal obtained in the presence of 1 µM of RMC-4550, the structure of which is shown below: [drawing 464]
The IC50 were then calculated from a dose-response curve of 10 concentrations of tested compound using the 4-parameter logistic model: I% = A + (C)/(1 + exp(−B×log(X)−M)) [formula]
The parameters A and (A+C) are the lower and upper limits, B is the slope of the curve at the inflexion point, M parameter is the logarithm of the abscissa at the inflexion point, and X is the concentration of compound.
Usually IC50 stands for the midpoint of a concentration-inhibition curve. For `COc1cccc(-c2c(C)nc(N3CCC4(CC3)Cc3ncccc3[C@H]4N)c3ccnn23)c1` [Compound 32, (5S)-1'-[7-(3-methoxyphenyl)-6-methyl-pyrazolo[1,5-a]pyrazin-4-yl]spiro[5,7-dihydrocyclopenta[b]pyridine-6,4'-piperidine]-5-amine], the IC50 was 6 nM.

For `Cc1nn(C)c(C)c1-c1c(C)nc(N2CCC3(CC2)Cc2ncccc2[C@H]3N)c2ccnn12` [Compound 33, (5S)-1'-[6-methyl-7-(1,3,5-trimethylpyrazol-4-yl)pyrazolo[1,5-a]pyrazin-4-yl]spiro[5,7-dihydrocyclopenta[b]pyridine-6,4'-piperidine]-5-amine], the IC50 is over 1000 nM.

`Cc1nc(N2CCC3(CC2)Cc2ncccc2[C@H]3N)c2ccnn2c1-c1ccc2c(c1F)OCCO2` [Compound 34, (5S)-1'-[7-(5-fluoro-2,3-dihydro-1,4-benzodioxin-6-yl)-6-methyl-pyrazolo[1,5-a]pyrazin-4-yl]spiro[5,7-dihydrocyclopenta[b]pyridine-6,4'-piperidine]-5-amine]: the IC50 worked out at 3 nM.

As to `Cc1nc(N2CCC3(CC2)Cc2c(ccnc2CO)[C@H]3N)c2ccnn2c1-c1ccccc1F` [Compound 35, [(5S)-5-amino-1'-[7-(2-fluorophenyl)-6-methyl-pyrazolo[1,5-a]pyrazin-4-yl]spiro[5,7-dihydrocyclopenta[c]pyridine-6,4'-piperidine]-1-yl]methanol], the IC50 was found to be 8 nM.

In the case of `Cc1nc(N2CCC3(CC2)Cc2ncccc2[C@H]3N)c2cc(C(F)F)nn2c1-c1cnn(C)c1C` [Compound 36, (5S)-1'-[2-(difluoromethyl)-7-(1,5-dimethylpyrazol-4-yl)-6-methyl-pyrazolo[1,5-a]pyrazin-4-yl]spiro[5,7-dihydrocyclopenta[b]pyridine-6,4'-piperidine]-5-amine], the IC50 came out at 228 nM.

Turning to `Cc1nc(N2CCC3(CC2)Cc2ncccc2[C@H]3N)c2cc(CO)nn2c1-c1cccc(F)c1F` [Compound 37, [4-[(5S)-5-aminospiro[5,7-dihydrocyclopenta[b]pyridine-6,4'-piperidine]-1'-yl]-7-(2,3-difluorophenyl)-6-methyl-pyrazolo[1,5-a]pyrazin-2-yl]methanol], the 50% inhibitory concentration (IC50) is 9 nM.

With `Cc1nc(N2CCC3(CC2)Cc2ncccc2[C@H]3N)c2ccnn2c1-c1sccc1Cl` [Compound 38, (5S)-1'-[7-(3-chloro-2-thienyl)-6-methyl-pyrazolo[1,5-a]pyrazin-4-yl]spiro[5,7-dihydrocyclopenta[b]pyridine-6,4'-piperidine]-5-amine], the IC50 is 12 nM.

`Cc1nc(N2CCC3(CC2)Cc2ncccc2[C@H]3N)c2ccnn2c1-c1ccccc1` [Compound 39, (5S)-1'-(6-methyl-7-phenyl-pyrazolo[1,5-a]pyrazin-4-yl)spiro[5,7-dihydrocyclopenta[b]pyridine-6,4'-piperidine]-5-amine]: the IC50 turned out to be 5 nM.

Take `Cc1nc(N2CCC3(CC2)Cc2ncccc2[C@H]3N)c2ccnn2c1-c1ccnc(C2CC2)c1Cl` [Compound 40, (5S)-1'-[7-(3-chloro-2-cyclopropyl-4-pyridyl)-6-methyl-pyrazolo[1,5-a]pyrazin-4-yl]spiro[5,7-dihydrocyclopenta[b]pyridine-6,4'-piperidine]-5-amine]: the IC50 is 10 nM.

On to `Cc1nc(N2CCC3(CC2)Cc2ncccc2[C@H]3N)c2ccnn2c1-c1ccnc(C(F)(F)F)c1F` [Compound 41, (5S)-1'-[7-[3-fluoro-2-(trifluoromethyl)-4-pyridyl]-6-methyl-pyrazolo[1,5-a]pyrazin-4-yl]spiro[5,7-dihydrocyclopenta[b]pyridine-6,4'-piperidine]-5-amine], for which the IC50 is 15 nM.

As for `CCc1nccc(-c2c(C)nc(N3CCC4(CC3)Cc3ncccc3[C@H]4N)c3ccnn23)c1Cl` [Compound 42, (5S)-1'-[7-(3chloro-2-ethyl-4-pyridyl)-6-methyl-pyrazolo[1,5-a]pyrazin-4-yl]spiro[5,7-dihydrocyclopenta[b]pyridine-6,4'-piperidine]-5-amine], the IC50 turned out to be 3 nM.

On to `Cc1cnc2c(c1)[C@@H](N)C1(CCN(c3nc(C)c(-c4ccnc(C)c4Cl)n4nccc34)CC1)C2` [Compound 43, (5S)-1'-[7-(3-chloro-2-methyl-4-pyridyl)-6-methyl-pyrazolo[1,5-a]pyrazin-4-yl]-3-methyl-spiro[5,7-dihydrocyclopenta[b]pyridine-6,4'-piperidine]-5-amine], for which the half-inhibitory concentration (IC50) was 4 nM.

Take `Cc1cc(-c2c(C)nc(N3CCC4(CC3)Cc3ncccc3[C@H]4N)c3ccnn23)n(C)n1` [Compound 44, (5S)-1'-[7-(2,5-dimethylpyrazol-3-yl)-6-methyl-pyrazolo[1,5-a]pyrazin-4-yl]spiro[5,7-dihydrocyclopenta[b]pyridine-6,4'-piperidine]-5-amine]: the IC50 was 15 nM.

As for `Cc1nccc(-c2c(C)nc(N3CCC4(CC3)Cc3ncccc3[C@H]4N)c3ccnn23)c1Cl` [Compound 45, (5S)-1'-[7-(3-cldoro-2-methyl-4-pyridyl)-6-methyl-pyrazolo[1,5-a]pyrazin-4-yl]spiro[5,7-dihydrocyclopenta[b]pyridine-6,4'-piperidine]-5-amine], the IC50 was found to be 8 nM.

Regarding `Cc1nc(N2CCC3(CC2)Cc2ncccc2[C@H]3N)c2ccnn2c1-c1cscc1C#N` [Compound 46, 4-[4-[(5S)-5-aminospiro[5,7-dihydrocyclopenta[b]pyridine-6,4'-piperidine]-1'-yl]-6-methyl-pyrazolo[1,5-a]pyrazin-7-yl]thiophene-3-carbonitrile], the IC50 came to 73 nM.

Consider `Cc1nn(C)cc1-c1c(C)nc(N2CCC3(CC2)Cc2ncccc2[C@H]3N)c2ccnn12` [Compound 47, (5S)-1'-[7-(1,3-dimethylpyrazol-4-yl)-6-methyl-pyrazolo[1,5-a]pyrazin-4-yl]spiro [5,7-dihydrocyclopenta[b]pyridine-6,4'-piperidine]-5-amine], for which the half-maximal inhibitory concentration (IC50) is 154 nM.

Turning to `CCn1cc(-c2c(C)nc(N3CCC4(CC3)Cc3ncccc3[C@H]4N)c3ccnn23)cn1` [Compound 48, (5S)-1'-[7-(1-ethylpyrazol-4-yl)-6-methyl-pyrazolo[1,5-a]pyrazin-4-yl]spiro[5,7-dihydrocyclopenta[b]pyridine-6,4'-piperidine]-5-amine], the half-maximal inhibitory concentration (IC50) came to 17 nM.

As to `Cc1nc(N2CCC3(CC2)Cc2ncccc2[C@H]3N)c2ccnn2c1-c1ccnc(C(F)(F)F)c1` [Compound 49, (5S)-1'-[6-methyl-7-[2-(trifluoromethyl)-4-pyridyl]pyrazolo[1,5-a]pyrazin-4-yl]spiro[5,7-dihydrocyclopenta[b]pyridine-6,4'-piperidine]-5-amine], the IC50 was determined as 130 nM.

Take `Cc1nc(N2CCC3(CC2)Cc2ncccc2[C@H]3N)c2ccnn2c1-c1cc2ccccc2n1C` [Compound 50, (5S)-1'-[6-methyl-7-(1-methylindol-2-yl)pyrazolo[1,5-a]pyrazin-4-yl]spiro[5,7-dihydrocyclopenta[b]pyridine-6,4'-piperidine]-5-amine]: the IC50 was determined as 10 nM.

Take `Cc1nc(N2CCC3(CC2)Cc2ncccc2[C@H]3N)c2ccnn2c1-c1ccccc1F` [Compound 51, (5S)-1'-[7-(2-fluorophenyl)-6-methyl-pyrazolo[1,5-a]pyrazin-4-yl]spiro[5,7-dihydrocyclopenta[b]pyridine-6,4'-piperidine]-5-amine]: the IC50 was 5 nM.

`Cc1ccccc1-c1c(C)nc(N2CCC3(CC2)Cc2ncccc2[C@H]3N)c2ccnn12` [Compound 52, (5S)-1'-[6-methyl-7-(o-tolyl)pyrazolo[1,5-a]pyrazin-4-yl]spiro[5,7-dihydrocyclopenta[b]pyridine-6,4'-piperidine]-5-amine]: the IC50 worked out at 24 nM.
